The supplement of paper PMC10883282
± gives the standard deviation of the averaged measurements.

What was measured:
Experiment in all cases: relative viability vs DMSO control (72 h) (fraction); higher = more viable cells
HT1080 = test system: HT1080
In short: (§1)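 After seeding at densities set for 80–90% confluence in 384-well plates, sarcoma cell lines waited 24 h before 2.5 µl of serially diluted compound was added. Source plates held 10 mM down to 0.0002 mM. Plates were incubated 72 h at 37 °C with 5% CO2, with 0.1% DMSO vehicle and a 5 µM positive control, and relative viability was taken from ATPLite as percent growth averaged over up to triplicate wells, with 1 set as full and 0 as none.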

SW872 = test system: SW872
In short: as §1

SK-LMS-1 = test system: SK-LMS-1
In short: as §1

KHOS-NP = test system: KHOS-NP
In short: as §1

HS729 = test system: HS729
In short: as §1

SK-ES-1 = test system: SK-ES-1
In short: as §1

A204 = test system: A204
In short: as §1

VA-ES-BJ = test system: VA-ES-BJ
In short: as §1

SW684 = test system: SW684
In short: as §1

G401 = test system: G401
In short: as §1

SW982 = test system: SW982
In short: as §1

RD-ES = test system: RD-ES
In short: as §1

Cc1ccc(C(=O)OCc2ccc([C@@H](CN)C(=O)Nc3ccc4cnccc4c3)cc2)c(C)c1 [Netarsudil]
Settings | relative viability
A204, 0.00017 µM | 1.03 ± 0.025
A204, 0.00051 µM | 1.05 ± 0.033
A204, 0.00152 µM | 1.04 ± 0.033
A204, 0.00457 µM | 1.03 ± 0.036
A204, 0.01372 µM | 1.01 ± 0.062
A204, 0.04115 µM | 0.963 ± 0.1
A204, 0.1235 µM | 0.841 ± 0.084
A204, 0.3704 µM | 0.82 ± 0.091
A204, 1.111 µM | 0.703 ± 0.038
A204, 3.333 µM | 0.609 ± 0.088
A204, 10 µM | 0.00737 ± 0.00072
G401, 0.00017 µM | 0.956 ± 0.038
G401, 0.00051 µM | 0.985 ± 0.029
G401, 0.00152 µM | 0.977 ± 0.012
G401, 0.00457 µM | 0.996 ± 0.061
G401, 0.01372 µM | 0.9802 ± 0.0095
G401, 0.04115 µM | 0.957 ± 0.027
G401, 0.1235 µM | 0.968 ± 0.045
G401, 0.3704 µM | 0.973 ± 0.055
G401, 1.111 µM | 0.941 ± 0.04
G401, 3.333 µM | 0.946 ± 0.056
G401, 10 µM | 0.00503 ± 0.0011
HS729, 0.00017 µM | 0.874 ± 0.04
HS729, 0.00051 µM | 0.85 ± 0.036
HS729, 0.00152 µM | 0.899 ± 0.052
HS729, 0.00457 µM | 0.852 ± 0.033
HS729, 0.01372 µM | 0.87 ± 0.017
HS729, 0.04115 µM | 0.896 ± 0.065
HS729, 0.1235 µM | 0.876 ± 0.02
HS729, 0.3704 µM | 0.844 ± 0.038
HS729, 1.111 µM | 0.812 ± 0.012
HS729, 3.333 µM | 0.8113 ± 0.0073
HS729, 10 µM | 0.224 ± 0.14
HT1080, 0.00017 µM | 1.03 ± 0.02
HT1080, 0.00051 µM | 1.02 ± 0.022
HT1080, 0.00152 µM | 1.043 ± 0.006
HT1080, 0.00457 µM | 0.994 ± 0.046
HT1080, 0.01372 µM | 1.03 ± 0.026
HT1080, 0.04115 µM | 1.01 ± 0.024
HT1080, 0.1235 µM | 1.03 ± 0.029
HT1080, 0.3704 µM | 1.04 ± 0.041
HT1080, 1.111 µM | 1.03 ± 0.026
HT1080, 3.333 µM | 1.02 ± 0.019
HT1080, 10 µM | 0.0118 ± 0.00069
KHOS-NP, 0.00017 µM | 1.03 ± 0.013
KHOS-NP, 0.00051 µM | 1.06 ± 0.038
KHOS-NP, 0.00152 µM | 1.03 ± 0.017
KHOS-NP, 0.00457 µM | 1.05 ± 0.012
KHOS-NP, 0.01372 µM | 1.03 ± 0.025
KHOS-NP, 0.04115 µM | 1.03 ± 0.03
KHOS-NP, 0.1235 µM | 1 ± 0.011
KHOS-NP, 0.3704 µM | 0.997 ± 0.014
KHOS-NP, 1.111 µM | 0.968 ± 0.037
KHOS-NP, 3.333 µM | 0.986 ± 0.056
KHOS-NP, 10 µM | 0.0142 ± 0.0013
RD-ES, 0.00017 µM | 0.995 ± 0.011
RD-ES, 0.00051 µM | 0.98 ± 0.011
RD-ES, 0.00152 µM | 0.971 ± 0.021
RD-ES, 0.00457 µM | 0.9831 ± 0.0081
RD-ES, 0.01372 µM | 0.976 ± 0.011
RD-ES, 0.04115 µM | 1.02 ± 0.02
RD-ES, 0.1235 µM | 1.015 ± 0.0052
RD-ES, 0.3704 µM | 1.035 ± 0.0093
RD-ES, 1.111 µM | 1.01 ± 0.015
RD-ES, 3.333 µM | 0.677 ± 0.028
RD-ES, 10 µM | 0.0137 ± 0.0016
SK-ES-1, 0.00017 µM | 1.01 ± 0.02
SK-ES-1, 0.00051 µM | 0.999 ± 0.05
SK-ES-1, 0.00152 µM | 1.04 ± 0.053
SK-ES-1, 0.00457 µM | 1.04 ± 0.039
SK-ES-1, 0.01372 µM | 1.03 ± 0.023
SK-ES-1, 0.04115 µM | 1.04 ± 0.025
SK-ES-1, 0.1235 µM | 1.03 ± 0.018
SK-ES-1, 0.3704 µM | 1.04 ± 0.034
SK-ES-1, 1.111 µM | 1.04 ± 0.012
SK-ES-1, 3.333 µM | 0.761 ± 0.055
SK-ES-1, 10 µM | 0.0124 ± 0.00042
SK-LMS-1, 0.00017 µM | 1.03 ± 0.018
SK-LMS-1, 0.00051 µM | 1.05 ± 0.029
SK-LMS-1, 0.00152 µM | 1.02 ± 0.021
SK-LMS-1, 0.00457 µM | 1 ± 0.098
SK-LMS-1, 0.01372 µM | 1.043 ± 0.0086
SK-LMS-1, 0.04115 µM | 1.03 ± 0.025
SK-LMS-1, 0.1235 µM | 1.07 ± 0.11
SK-LMS-1, 0.3704 µM | 0.989 ± 0.072
SK-LMS-1, 1.111 µM | 0.799 ± 0.038
SK-LMS-1, 3.333 µM | 0.574 ± 0.026
SK-LMS-1, 10 µM | 0.0101 ± 0.00044
SW684, 0.00017 µM | 1.12 ± 0.022
SW684, 0.00051 µM | 1.1 ± 0.094
SW684, 0.00152 µM | 1.11 ± 0.049
SW684, 0.00457 µM | 1.11 ± 0.046
SW684, 0.01372 µM | 1.09 ± 0.037
SW684, 0.04115 µM | 1.076 ± 0.004
SW684, 0.1235 µM | 0.991 ± 0.024
SW684, 0.3704 µM | 0.8806 ± 0.0066
SW684, 1.111 µM | 0.884 ± 0.043
SW684, 3.333 µM | 0.805 ± 0.069
SW684, 10 µM | -0.0136 ± 0.0025
SW872, 0.00017 µM | 0.997 ± 0.059
SW872, 0.00051 µM | 1.01 ± 0.077
SW872, 0.00152 µM | 1.01 ± 0.073
SW872, 0.00457 µM | 0.988 ± 0.031
SW872, 0.01372 µM | 1.01 ± 0.034
SW872, 0.04115 µM | 0.955 ± 0.036
SW872, 0.1235 µM | 0.961 ± 0.062
SW872, 0.3704 µM | 0.82 ± 0.049
SW872, 1.111 µM | 0.74 ± 0.015
SW872, 3.333 µM | 0.637 ± 0.11
SW872, 10 µM | 0.000233 ± 0.0018
SW982, 0.00017 µM | 1.06 ± 0.017
SW982, 0.00051 µM | 1.03 ± 0.015
SW982, 0.00152 µM | 1.03 ± 0.023
SW982, 0.00457 µM | 1.04 ± 0.019
SW982, 0.01372 µM | 1.05 ± 0.011
SW982, 0.04115 µM | 1.032 ± 0.0082
SW982, 0.1235 µM | 0.98 ± 0.03
SW982, 0.3704 µM | 0.897 ± 0.064
SW982, 1.111 µM | 0.841 ± 0.093
SW982, 3.333 µM | 0.749 ± 0.12
SW982, 10 µM | 0.0152 ± 0.0017
VA-ES-BJ, 0.00017 µM | 1.02 ± 0.051
VA-ES-BJ, 0.00051 µM | 1 ± 0.065
VA-ES-BJ, 0.00152 µM | 0.998 ± 0.033
VA-ES-BJ, 0.00457 µM | 1.02 ± 0.048
VA-ES-BJ, 0.01372 µM | 1.01 ± 0.022
VA-ES-BJ, 0.04115 µM | 0.991 ± 0.028
VA-ES-BJ, 0.1235 µM | 0.99 ± 0.058
VA-ES-BJ, 0.3704 µM | 0.998 ± 0.039
VA-ES-BJ, 1.111 µM | 1.03 ± 0.03
VA-ES-BJ, 3.333 µM | 1.03 ± 0.12
VA-ES-BJ, 10 µM | 0.659 ± 0.13
